Measurements: patent publication US20100173832A1, “ANTICANCEROUS POLYMERIC AGENTS” (TECHNION RESEARCH & DEVELOPMENT FOUNDATION LTD., priority 2007, published 2010)
Where two headings read alike, the source gives them in different places. Non-standard residues stand in square brackets, D forms with d. Residues, ends and D or L forms follow the SMILES beside them. *: point of attachment. Lauroyl = CCCCCCCCCCCC(=O)*; 12Ado = NCCCCCCCCCCCC(=O)O; Octanoyl = CCCCCCCC(=O)*

Key:
[1] = tested on: N-417 cell line; assay: XTT cell viability assay, N-417 cells; type: cell-based
Source text: Variant small cell lung cancer cells (N-417, SCLC);
(§1) As a routine cancer cell killing assay for assessment of antitumor activity, 2,3-bis(2-methoxy-4-nitro-5-sulfophenyl)-2H-tetrazolium-5-carboxanilide inner salt (XTT) reduction assay was used, utilizing a commercial kit such as, for example, Cell Proliferation XTT Kit, Cat. No. 20-300-1000, Biological Industries Ltd., Kibbutz Beit Haemek, Israel. XTT is a tetrazolium salt which is cleaved to formazan colored compounds by the mitochondrial dehydrogenase enzymes indicating proper mitochondrial activity in intact cells.
(§2) Thereafter, a series of increasing concentrations of the polymers were added. After another 24 hours of incubation, XTT reaction solution was added (50 μl of XTT per 100 μl of cell culture medium). The optical density of the cells was measured at 450 nm by ELISA plate reader after 2-4 hours XTT incubation. Cell viability was determined relative to a control having no polymer added thereto.
“Human breast cancer MCF-7” represents the lethal concentration in μM as measured against MCF-7 cell line, measured as described hereinabove in the cell proliferation XTT assay (column 6 in Table 3); “Human small-cell lung carcinoma N-417” represents the lethal concentration in μM as measured against N-417 cell line, measured as described hereinabove in the cell proliferation XTT assay (column 7 in Table 3);

[2] = in vitro; conditions: human, red blood cells
Experimental: The polymer's toxic potential was determined against human red blood cells (RBC) by measuring leakage of hemoglobin therefrom in phosphate buffer solution (PBS). Human blood samples were rinsed three times in PBS by centrifugation for 2 minutes at 200×g, and re-suspended in PBS at 5% hematocrit. A 50 μl-fractions of a suspension containing […] RBC were added to test tubes containing 200 μl of polymer solutions (2-fold serial dilutions in PBS), PBS alone (for base-line values), or distilled water (for 100% hemolysis). […] Controls for base-line hemolysis (blank) and 100% hemolysis consisted of RBC suspended in PBS and TritonX100 (0.2%), respectively.

[3] = tested on: MCF-7 cell line; type: cell-based
[4] = XTT cell viability assay, non-cancerous cardiac fibroblasts (CF); type: cell-based, rat; conditions: rat
Source text: Primary non-cancerous rat cardiac fibroblasts (CF);
as §1, §2
“Rat primary cardiac fibroblast CF” represents the lethal concentration in μM as measured against CF cell line, measured as described hereinabove in the cell proliferation XTT assay (column 8 in Table 3);

[5] = tested on: TRAMP-C2 cell line; type: cell-based
Source text: Transgenic adenocarcinoma mouse prostate cells (TRAMP-C2);
as §1, §2
“Mouse prostate cancer TRAMP-C2” represents the lethal concentration in μM as measured against TRAMP-C2 cell line, measured as described hereinabove in the cell proliferation XTT assay (column 5 in Table 3);

[6] = 24 hours incubation, XTT, read-out: Cancer LC50 Human small-cell lung carcinoma N-417
[7] = 24 hours incubation, XTT, read-out: Cancer LC50 Human breast cancer MCF-7
[8] = primary non-cancerous cardiac fibroblasts (CF), 24 hours incubation, XTT, non-cancerous cells, read-out: Cancer LC50 Rat primary cardiac fibroblast CF
[9] = 24 hours incubation, XTT, read-out: Cancer LC50 Mouse prostate cancer TRAMP-C2
[10] = Cancer LC50 Rat primary cardiac fibroblast CF

| SMILES | CC50 [1, 6] | HC50 at 3 h [2] | CC50 [3, 7] | CC50 at 24 h [4, 8] | CC50 [5, 9] | CC50 at 24 h ([4]; primary non-cancerous cardiac fibroblasts (CF), dose-dependent plots, FIGS. 4a-b, 6a, read-out: LC50 against non-cancerous CF cells) | CC50 ([5]; dose-dependent plot, FIG. 6a, read-out: LC50 towards TRAMP-C2 cells) | CC50 ([1]; human, 24 h) | CC50 ([3]; human, 24 h) | CC50 at 24 h [4, 10] | CC50 ([5]; mouse, 24 h) |
| --- | --- | --- | --- | --- | --- | --- | --- | --- | --- | --- | --- |
| CCCCCCCCCCCC(=O)N[C@@H](CCCCN)C(=O)N[C@@H](CCCCN)C(=O)NCCCCCCCCCCCC(=O)N[C@@H](CCCCN)C(=O)N[C@@H](CCCCN)C(=O)NCCCCCCCCCCCC(=O)N[C@@H](CCCCN)C(=O)N[C@@H](CCCCN)C(=O)NCCCCCCCCCCCC(=O)N[C@@H](CCCCN)C(N)=O (Lauroyl-KK[12Ado]KK[12Ado]KK[12Ado]K-NH2) | 17 ± 2 µM | 10 ± 1 µM | 8 ± 1 µM | 36 ± 6 µM | > 16 µM | – | – | – | – | – | – |
| CCCCCCCCCCCC(=O)N[C@@H](CCCCN)C(=O)NCCCCCCCCCCCC(=O)N[C@@H](CCCCN)C(=O)N[C@@H](CCCCN)C(=O)NCCCCCCCCCCCC(=O)N[C@@H](CCCCN)C(=O)N[C@@H](CCCCN)C(=O)NCCCCCCCCCCCC(=O)N[C@@H](CCCCN)C(N)=O (Lauroyl-K[12Ado]KK[12Ado]KK[12Ado]K-NH2) | < 16 µM | 10 ± 0.1 µM | 6 ± 1 µM | > 16 µM | 10 µM | 38 µM | 11 µM | – | – | – | – |
| NCCCC[C@H](NC(=O)CCCCCCCCCCCNC(=O)[C@H](CCCCN)NC(=O)[C@H](CCCCN)NC(=O)CCCCCCCCCCCNC(=O)[C@@H](N)CCCCN)C(N)=O [(KNC12K)2NH2] (HELM PEPTIDE1{K.[O=C(CCCCCCCCCCCN[*:1])[*:2]].K.K.[O=C(CCCCCCCCCCCN[*:1])[*:2]].K.[am]}$$$$V2.0) | > 16 µM | > 100 µM | > 16 µM | > 16 µM | > 16 µM | – | – | – | – | – | – |
| CCCCCCCC(=O)N[C@@H](CCCCN)C(=O)NCCCCCCCCCCCC(=O)N[C@@H](CCCCN)C(=O)N[C@@H](CCCCN)C(=O)NCCCCCCCCCCCC(=O)N[C@@H](CCCCN)C(=O)N[C@@H](CCCCN)C(=O)NCCCCCCCCCCCC(=O)N[C@@H](CCCCN)C(N)=O [C8(KNC12K)3NH2] (Octanoyl-K[12Ado]KK[12Ado]KK[12Ado]K-NH2) | 9 ± 1.4 µM | 51 ± 6 µM | 8.7 ± 0.5 µM | 37 ± 1 µM | 15 ± 0.7 µM | – | – | – | – | – | – |
| CCCCCCCC(=O)N[C@@H](CCCCN)C(=O)N[C@@H](CCCCN)C(=O)NCCCCCCCCCCCC(=O)N[C@@H](CCCCN)C(=O)N[C@@H](CCCCN)C(=O)NCCCCCCCCCCCC(=O)N[C@@H](CCCCN)C(N)=O [C8K(KNC12K)2NH2] (Octanoyl-KK[12Ado]KK[12Ado]K-NH2) | > 16 µM | – | 20 ± 1 µM | > 50 µM | > 16 µM | – | – | – | – | – | – |
| CCCCCCCC(=O)N[C@@H](CCCCN)C(=O)N[C@@H](CCCCN)C(=O)NCCCCCCCCCCCC(=O)N[C@@H](CCCCN)C(N)=O [C8KKNC12KNH2] (HELM PEPTIDE1{[CCCCCCCC(=O)[*:2]].K.K.[O=C(CCCCCCCCCCCN[*:1])[*:2]].K.[am]}$$$$V2.0) | – | – | – | – | – | – | – | > 16 µM | > 16 µM | > 16 µM | > 16 µM |
| CCCCCCCCCCCC(=O)N[C@@H](CCCCN)C(=O)N[C@@H](CCCCN)C(=O)NCCCCCCCCCCCC(=O)N[C@@H](CCCCN)C(=O)N[C@@H](CCCCN)C(=O)NCCCCCCCCCCCC(=O)N[C@@H](CCCCN)C(N)=O [C12K(KNC12K)2NH2] (Lauroyl-KK[12Ado]KK[12Ado]K-NH2) | 11 ± 1 µM | – | 12 ± 4 µM | 38 ± 1 µM | > 16 µM | – | – | – | – | – | – |
| CCCCCCCCCCCC(=O)N[C@@H](CCCCN)C(=O)N[C@@H](CCCCN)C(=O)NCCCCCCCCCCCC(=O)N[C@@H](CCCCN)C(N)=O [C12KKNC12KNH2] (HELM PEPTIDE1{[CCCCCCCCCCCC(=O)[*:2]].K.K.[O=C(CCCCCCCCCCCN[*:1])[*:2]].K.[am]}$$$$V2.0) | – | – | – | – | – | – | – | > 50 µM | > 16 µM | > 16 µM | > 16 µM |
| NCCCC[C@@H]1NC(=O)CCCCCCCCCCCNC(=O)[C@H](CCCCN)NC(=O)[C@H](CCCCN)NC(=O)CCCCCCCCCCCNC(=O)[C@H](CCCCN)NC1=O [Cyclic-(KNC12K)2] (HELM PEPTIDE1{[O=C(CCCCCCCCCCCN[*:1])[*:2]].K.K.[O=C(CCCCCCCCCCCN[*:1])[*:2]].K.K}$PEPTIDE1,PEPTIDE1,1:R1-6:R2$$$V2.0) | – | > 100 µM | – | – | – | – | – | – | – | – | – |
